Measurements taken from patent US20210290644A1, “COMPOUNDS AND METHODS FOR TREATING FUNGAL INFECTIONS” (Amplyx Pharmaceuticals, Inc., priority 2018, published 2021).
Values joined by “and” are separate entries in the source; they are usually repeats but may differ in a detail not shown here. Equal values may be shown once. Read-outs that look alike come from different tables or passages of the source.

Legend:
[1] = Study #2 Phase 1: pharmacokinetics after single IV and single/multiple oral doses of Compound 1, absolute oral bioavailability; settings: for CL/F / Cmax / Tmax / half-life / bioavailability / AUC(0-inf) / Vd/F / AUC(0-t): human, plasma;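 on all read-outs here: phase 1 study design: one IV dose, then escalating single oral doses, fed versus fasted single oral dosing, and once-daily oral dosing over 14 days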
From the text: In the single ascending dose (SAD) phase, subjects in Cohort 1a received a single IV dose in Period A and then rising single oral doses in Periods B to D. Subjects in Cohort 1b received a single oral dose under fed and fasted conditions in Periods E and F. Subjects in Cohorts 2 and 3 received once-daily oral doses for 14 days, as did subjects in Cohort 4 as part of an in vivo screen for drug-drug interaction (DDI) potential.
For SAD Cohorts 1a and 1b, urine samples for the determination of Compound 1A were collected through 48 hrs after dosing.
Forty-six (46) subjects were enrolled into the study, 8 in Cohort 1a, 10 in Cohort 1b, and 8 each in Cohorts 2 and 3.

[2] = human, in vivo
From the text: This was a Phase 1, first-in-human, randomized, double-blind, placebo-controlled single ascending dose (SAD) and multiple ascending dose (MAD) escalation study of 120 healthy male and female subjects. The objectives of the study were to evaluate the safety, tolerability, and pharmacokinetics of single and multiple doses of Compound 1 administered by intravenous (IV) infusion.
In the single ascending dose (SAD) phase, Cohorts 1 to 6 and 11A to 11D received single doses. For Cohorts 11A to 11D, the infusion time varied from 0.5 to 3 hours to evaluate the relationship between C., and tolerability. In the multiple ascending dose (MAD) phase, Cohorts 7 to 10 received multiple doses over 14 days, and Cohort 12 examined the feasibility of a loading dose regimen.
Blood samples for the determination of Compound 1 and Compound 1A plasma concentrations were collected before and at appropriate times during all single- and multiple-dose administrations of Compound 1. For SAD Cohorts 1 to 6, urine samples for the determination of Compound 1A were collected through 48 hrs after dosing.
Eighty (80) subjects were enrolled into SAD Cohorts 1 to 6 and 11A to 11D. Within each cohort, six subjects were randomized to Compound 1 and two subjects to placebo. All 60 subjects randomized to Compound 1 completed dosing. Fifty-nine (59) subjects completed the study.
Forty (40) subjects were enrolled into MAD Cohorts 7 to 10 and Loading Dose Cohort 12. Within each cohort, six subjects were randomized to Compound 1 and two subjects to placebo.
The PK analysis population therefore consisted of 60 subjects in the SAD phase and 28 subjects in the MAD phase.

[3] = oral Compound 1 QD × 14 days, 3 cohorts
[4] = single oral doses of Compound 1 100 mg to 500 mg, fasted

## Nc1ncccc1-c1cc(Cc2ccc(COc3ccccn3)cc2)no1 [Compound 1A]
[1]; oral, 1000 mg, CL, Day 14, Cohort 3, 1000 mg Tablets QD × 14 Days, fed, geometric mean
  CL/F: 0.582 mL/min/kg
[1]; oral, 1000 mg, Day 1, Cohort 3, 1000 mg Tablets QD × 14 Days, fed, geometric mean
  Cmax: 10600 ng/mL
[1]; oral, 1000 mg, Day 7, Cohort 3, 1000 mg Tablets QD × 14 Days, fed, geometric mean
  Cmax: 21300 ng/mL
[1]; oral, 1000 mg, Day 14, Cohort 3, 1000 mg Tablets QD × 14 Days, fed, geometric mean
  Cmax: 21300 ng/mL
[1]; oral, 1000 mg, Tmax, Day 1, Cohort 3, 1000 mg Tablets QD × 14 Days, fed, median
  Tmax: 4.5 h
[1]; oral, 1000 mg, Tmax, Day 7, Cohort 3, 1000 mg Tablets QD × 14 Days, fed, median
  Tmax: 4 h
[1]; oral, 1000 mg, Tmax, Day 14, Cohort 3, 1000 mg Tablets QD × 14 Days, fed, median
  Tmax: 3.77 h
[1]; oral, 1000 mg, T½, Day 14, Cohort 3, 1000 mg Tablets QD × 14 Days, fed, geometric mean
  half-life: 52.6 h
[1]; po, 100 mg
  bioavailability: 90.6%
[1]; po, 100 mg, Tmax, 100 mg Oral Compound 1, fasted, median
  Tmax: 2 h
[1]; po, 300 mg
  AUC(0-inf): 122 µg·h/mL
  Vd/F: 142 L and 1.84 L/kg
  bioavailability: 93.1%
[1]; po, 300 mg, AUC(0-24), 300 mg Oral Compound 1, fasted, geometric mean
  AUC(0-t): 35.6 µg·h/mL
[1]; po, 300 mg, AUC(0-t), 300 mg Oral Compound 1, fasted, geometric mean
  AUC(0-t): 118 µg·h/mL
[1]; po, 300 mg, CL/F, 300 mg Oral Compound 1, fasted, geometric mean
  CL/F: 0.405 mL/min/kg
[1]; po, 300 mg, 300 mg Oral Compound 1, fasted, geometric mean
  Cmax: 3750 ng/mL
[1]; po, 300 mg, Tmax, 300 mg Oral Compound 1, fasted, median
  Tmax: 2.5 h
[1]; po, 300 mg, t½, 300 mg Oral Compound 1, fasted, geometric mean
  half-life: 52.5 h
[1]; po, 400 mg
  bioavailability: 101%
[1]; po, 400 mg, Tmax, 400 mg Oral Compound 1, fasted, median
  Tmax: 2.5 h
[1]; po, 500 mg
  AUC(0-inf): 205 µg·h/mL
  Vd/F: 121 L and 1.62 L/kg
  bioavailability: 93.5%
[1]; po, 500 mg, AUC(0-24), 500 mg Oral Compound 1, fasted, geometric mean
  AUC(0-t): 59 µg·h/mL
[1]; po, 500 mg, AUC(0-24), Day 1, Cohort 4, 500 mg Oral Solution QD × 14 Days, fed, geometric mean
  AUC(0-t): 56.7 µg·h/mL
[1]; po, 500 mg, AUC(0-24), Day 7, Cohort 4, 500 mg Oral Solution QD × 14 Days, fed, geometric mean
  AUC(0-t): 140 µg·h/mL
[1]; po, 500 mg, AUC(0-24), Day 14, Cohort 4, 500 mg Oral Solution QD × 14 Days, fed, geometric mean
  AUC(0-t): 153 µg·h/mL
[1]; po, 500 mg, AUC(0-t), 500 mg Oral Compound 1, fasted, geometric mean
  AUC(0-t): 197 µg·h/mL
[1]; po, 500 mg, CL, Day 14, Cohort 4, 500 mg Oral Solution QD × 14 Days, fed, geometric mean
  CL/F: 0.555 mL/min/kg
[1]; po, 500 mg, CL/F, 500 mg Oral Compound 1, fasted, geometric mean
  CL/F: 0.418 mL/min/kg
[1]; po, 500 mg, 500 mg Oral Compound 1, fasted, geometric mean
  Cmax: 6410 ng/mL
[1]; po, 500 mg, Day 1, Cohort 4, 500 mg Oral Solution QD × 14 Days, fed, geometric mean
  Cmax: 5850 ng/mL
[1]; po, 500 mg, Day 7, Cohort 4, 500 mg Oral Solution QD × 14 Days, fed, geometric mean
  Cmax: 10400 ng/mL
[1]; po, 500 mg, Day 14, Cohort 4, 500 mg Oral Solution QD × 14 Days, fed, geometric mean
  Cmax: 12300 ng/mL
[1]; po, 500 mg, Tmax, 500 mg Oral Compound 1, fasted, median
  Tmax: 3 h
[1]; po, 500 mg, Tmax, Day 1, Cohort 4, 500 mg Oral Solution QD × 14 Days, fed, median
  Tmax: 2 h
[1]; po, 500 mg, Tmax, Day 7, Cohort 4, 500 mg Oral Solution QD × 14 Days, fed, median
  Tmax: 2 h
[1]; po, 500 mg, Tmax, Day 14, Cohort 4, 500 mg Oral Solution QD × 14 Days, fed, median
  Tmax: 1 h
[1]; po, 500 mg, T½, Day 14, Cohort 4, 500 mg Oral Solution QD × 14 Days, fed, geometric mean
  half-life: 55.4 h
[1]; po, 500 mg, t½, 500 mg Oral Compound 1, fasted, geometric mean
  half-life: 44.9 h
[1]; po, geometric mean t1/2, range across treatments, 4 oral treatments of Compound 1
  half-life: 44.9 to 64.7 h
[1]; po, median tmax, range across doses and study days, oral Compound 1 500 mg and 1000 mg QD × 14 days, fed
  Tmax: 2 to 3 h
[1]; po, median tmax, range across doses, 4 single oral doses of Compound 1
  Tmax: 2 to 3 h
[1]; [3]
  median accumulation, ratio of AUC0-24 on Day 14 to Day 1: 2.95
  median accumulation, ratio of Cmax on Day 14 to Day 1: 1.99
[1]; oral QD × 14 days, Days 1, 7, and 14
  increase in geometric mean Cmax and AUC0-24 from 500 mg to 1000 mg: ~2 fold
[1]; [4]
  slope of log-log AUC(inf) vs. dose (power model parameter b): 1.04±0.046
  slope of log-log Cmax vs. dose (power model parameter b): 0.935±0.077
[2]; both
  slope of log-log AUC0-24 vs. dose (power model parameter b): 1.015±0.043
  slope of log-log steady-state Cmax vs. dose (power model parameter b): 1.039±0.031
[2]; both, iv
  CL: 0.387 mL/min/kg
  median accumulation, ratio of AUC0-24 on Day 14 to Day 1: 3.27
  median accumulation, ratio of Cmax on Day 14 to Day 1: 1.96
  slope of log-log AUC(inf) versus dose (power model parameter b): 1.01±0.020
  slope of log-log Cmax versus dose (power model parameter b): 0.929±0.021
  time at which steady-state is reached: between Day 7 and Day 14
[2]; iv
  target plasma exposures (AUC0-24) for clinical efficacy against Candida spp., Aspergillus spp., rare molds: exceeded
